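Exposure lasted 48 hours, with cells grown in 96-well plates and compounds tested at five concentrations. The concentration for 50% growth inhibition is given as GI50.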 Activity calls are given as the source filed them. Cut-off read from the data, not from the text of the source: active = GI50 up to about 1.1 µM and inactive = higher.
Tests used:
Assay in all cases: growth of human tumour cells (NCI), 48 h
M19-MEL = test system: M19-MEL
HOP-92 = test system: HOP-92
OVCAR-4 = test system: OVCAR-4
A549 = test system: A549
LOX IMVI = test system: LOX IMVI
SK-MEL-5 = test system: SK-MEL-5
NCI-H522 = test system: NCI-H522
SK-MEL-2 = test system: SK-MEL-2
UO-31 = test system: UO-31
Malme-3M = test system: Malme-3M
786-0 = test system: 786-0
UACC-257 = test system: UACC-257
NCI-H23 = test system: NCI-H23
OVCAR-3 = test system: OVCAR-3
SNB-75 = test system: SNB-75
U-251 = test system: U-251
SF-268 = test system: SF-268
MOLT-4 = test system: MOLT-4
SN12C = test system: SN12C

Measured: GI50

CSc1ccc2c(cc1=O)[C@@H](NC(=O)c1ccc(F)cc1)CCc1cc(O)c(O)c(O)c1-2
inactive: M19-MEL > 100 µM | HOP-92 84.9 µM | OVCAR-4 > 100 µM | A549 > 100 µM | LOX IMVI > 100 µM | SK-MEL-5 > 100 µM | NCI-H522 > 100 µM | SK-MEL-2 > 100 µM | UO-31 > 100 µM | Malme-3M > 100 µM | 786-0 > 100 µM | UACC-257 > 100 µM | NCI-H23 > 100 µM | OVCAR-3 > 100 µM | SNB-75 > 100 µM | U-251 > 100 µM | SF-268 > 100 µM | MOLT-4 > 100 µM | SN12C > 100 µM

CCCCCCCCCCCCCCCCP(=O)(OC)OC
inactive: M19-MEL 16.4 µM | HOP-92 16.4 µM | OVCAR-4 20.7 µM | A549 17.7 µM | LOX IMVI 16.9 µM | SK-MEL-5 16.4 µM | NCI-H522 13.5 µM | SK-MEL-2 16.4 µM | UO-31 11.7 µM | Malme-3M 18.2 µM | 786-0 17.6 µM | UACC-257 17.5 µM | NCI-H23 16.5 µM | OVCAR-3 17.8 µM | SNB-75 16.6 µM | U-251 17.9 µM | MOLT-4 16.5 µM | SN12C 17.2 µM

COc1cccc(C2c3cc4c(cc3OC(O)(CO)C2C(=O)O)OCO4)c1.COc1cccc(C2c3cc4c(cc3OC3(O)COC(=O)C23)OCO4)c1 (centres undefined)
inactive: M19-MEL 76.9 µM | HOP-92 30.6 µM | OVCAR-4 37 µM | A549 82.2 µM | LOX IMVI 52.1 µM | SK-MEL-5 67.1 µM | SK-MEL-2 > 100 µM | UO-31 64.3 µM | Malme-3M > 100 µM | 786-0 > 100 µM | UACC-257 41.5 µM | NCI-H23 43.5 µM | OVCAR-3 69.5 µM | SNB-75 14.5 µM | U-251 22.2 µM | SF-268 40.4 µM | MOLT-4 35.7 µM | SN12C 55.3 µM

COc1ccccc1NC(=O)C(CC(C(=O)Nc1ccccc1OC)/C(C)=N/NC(=O)c1ccccc1O)/C(C)=N/NC(=O)c1ccccc1O (centres undefined)
inactive: M19-MEL > 100 µM | HOP-92 26 µM | OVCAR-4 51.8 µM | A549 82.4 µM | LOX IMVI > 100 µM | SK-MEL-5 47 µM | NCI-H522 64.4 µM | SK-MEL-2 > 100 µM | UO-31 40.4 µM | Malme-3M > 100 µM | 786-0 > 100 µM | UACC-257 > 100 µM | NCI-H23 > 100 µM | OVCAR-3 54.1 µM | SNB-75 96.6 µM | U-251 59 µM | SF-268 > 100 µM | MOLT-4 47.5 µM | SN12C > 100 µM

Cc1cc(Br)ccc1NC1=CC(=O)C(=O)c2ccccc21
inactive: M19-MEL 15.2 µM | OVCAR-4 9.08 µM | A549 39.1 µM | LOX IMVI 21.4 µM | SK-MEL-5 20 µM | NCI-H522 30.8 µM | SK-MEL-2 23.6 µM | UO-31 94.6 µM | Malme-3M 24.3 µM | 786-0 38.5 µM | UACC-257 15.9 µM | NCI-H23 10.9 µM | OVCAR-3 35 µM | SNB-75 41.1 µM | U-251 26.4 µM | SF-268 47.4 µM | MOLT-4 39.4 µM | SN12C 60.1 µM

CC(=O)N1CCc2[nH]c3ccccc3c2CC1
inactive: M19-MEL > 100 µM | HOP-92 31.5 µM | OVCAR-4 > 100 µM | A549 > 100 µM | LOX IMVI > 100 µM | SK-MEL-5 > 100 µM | SK-MEL-2 > 100 µM | Malme-3M > 100 µM | 786-0 > 100 µM | UACC-257 > 100 µM | NCI-H23 > 100 µM | OVCAR-3 > 100 µM | SNB-75 19.9 µM | U-251 > 100 µM | MOLT-4 > 100 µM

CCOC(=O)C(=O)Nc1c(F)cc(F)cc1Br
inactive: M19-MEL > 100 µM | HOP-92 > 100 µM | OVCAR-4 > 100 µM | A549 > 100 µM | LOX IMVI > 100 µM | SK-MEL-5 > 100 µM | SK-MEL-2 > 100 µM | UO-31 > 100 µM | Malme-3M > 100 µM | 786-0 > 100 µM | UACC-257 > 100 µM | NCI-H23 > 100 µM | OVCAR-3 > 100 µM | SNB-75 > 100 µM | U-251 > 100 µM | SF-268 > 100 µM | MOLT-4 > 100 µM | SN12C > 100 µM

CCc1cccc(C(C)CC)c1NC(=O)C(=O)C(CC(=O)Nc1ccc(Cl)c(Cl)c1)C(=O)OC (centres undefined)
inactive: M19-MEL 36.8 µM | HOP-92 16.7 µM | OVCAR-4 > 100 µM | A549 63.1 µM | NCI-H522 38.5 µM | SK-MEL-2 > 100 µM | UO-31 73.1 µM | Malme-3M > 100 µM | 786-0 80.9 µM | UACC-257 > 100 µM | NCI-H23 > 100 µM | OVCAR-3 > 100 µM | SNB-75 21 µM | U-251 > 100 µM | SF-268 64 µM | MOLT-4 71.3 µM | SN12C > 100 µM

Cc1cc(CC(O)c2ccc(Cl)c(Cl)c2)nc(O)n1 (centres undefined)
inactive: M19-MEL 58.6 µM | HOP-92 18 µM | OVCAR-4 48.9 µM | A549 21.8 µM | SK-MEL-5 57.4 µM | NCI-H522 20.2 µM | SK-MEL-2 61.7 µM | UO-31 54.1 µM | Malme-3M 81.8 µM | 786-0 17.6 µM | UACC-257 > 100 µM | NCI-H23 27.5 µM | OVCAR-3 32.2 µM | SNB-75 17.7 µM | U-251 29.1 µM | SF-268 38.5 µM | MOLT-4 > 10 µM | SN12C 86.3 µM

[O-]c1c2cc(-[n+]3c(-c4ccccc4)cc(-c4ccccc4)cc3-c3ccccc3)cc1COCCOCCOCCOCCOC2
inactive: M19-MEL 30.8 µM | HOP-92 26 µM | OVCAR-4 59.4 µM | A549 60 µM | LOX IMVI 43 µM | NCI-H522 35.6 µM | SK-MEL-2 21.7 µM | UO-31 85.3 µM | Malme-3M 34.2 µM | 786-0 54.5 µM | UACC-257 24 µM | NCI-H23 41.9 µM | SNB-75 41.7 µM | U-251 38.8 µM | SF-268 29 µM | MOLT-4 32.1 µM | SN12C 38.8 µM

CC1(C)CC[C@]2(C(=O)O)CCC3(C)C(=CCC4[C@@]5(C)CC[C@H](OC6OCC(O)C(O)C6OC6OC(CO)C(O)C(O)C6O)C(C)(C)C5CC[C@]43C)C2C1 (some centres undefined)
inactive: M19-MEL 1.83 µM | HOP-92 1.84 µM | OVCAR-4 1.57 µM | A549 1.86 µM | LOX IMVI 1.95 µM | SK-MEL-5 3.98 µM | UO-31 2.16 µM | Malme-3M 1.87 µM | 786-0 2.04 µM | UACC-257 2.94 µM | NCI-H23 2.11 µM | OVCAR-3 2.12 µM | SNB-75 2.2 µM | U-251 1.93 µM | SF-268 2.4 µM | MOLT-4 2.98 µM | SN12C 1.89 µM

Reference: ChEMBL document CHEMBL1201862, “PubChem BioAssay data set” (2004)
